The values below come from US8753875B2, “Compositions and means for diagnosing microbial infections” (priority 2007, dated 2014).

Assay [1] has as its system E. coli. As to conditions: cited from earlier work.
The subject of assay [2] is E. coli. As to conditions: 1142 E. coli outpatient urinary isolates, USA and Canada; cited from earlier work.
Assay [3] has as its system E. coli. The assay is described as follows: Growth on Flexicult plate, susceptibility/resistance to the five antibiotics (FIG. 4, Table A). The assay is classed as cell-based. From the text: (§1) The kit was developed for urine culture in the primary health care setting. It is designed preferably as a nine cm Petri dish divided into six compartments: One larger compartment for quantitative analysis and five smaller compartments for susceptibility testing. The agar in each small compartment contains one of five antimicrobials (for Denmark and Scandinavia preferably: trimethoprim, sulfamethizole, ampicillin, nitrofurantoin and mecillinam (amdinocillin)) at a concentration adjusted to the breakpoint, such that growth in these compartments indicates resistance, and no growth indicates susceptibility. The Petri dish preferably has higher sides, approximately 2.48 cm, than the usual dish, i.e. ca. 1.48 cm. This allows a larger amount, maximum 100 ml, of urine to be poured onto the dish for inoculation.
(§2) Reading the susceptibility of the bacterial growth: Each bacterium (if more than one) is read individually: The growth in each of the antibiotic fields is compared with the growth on the control agar. […] If there is no growth (or substantially less than the control agar), then the bacterium is considered to be susceptible to the antibiotic. […] When nitrofurantoin and mecillinam are used as antibiotics, a few single colonies may be seen of the same type as the bacterium on the control agar: These are not considered to be resistant mutants but “persisters,” i.e. if retested they will appear susceptible. This is commonly seen also by disc diffusion especially for mecillinam.

Another assay has as its system P. vulgaris. The assay is described as above. The assay is classed as cell-based.
From the text: as §1, §2

Another assay has as its system Enterobacter spp. The description is as above. The assay is classed as cell-based.
From the text: as §1, §2

For another assay, the system named is Citrobacter spp. The description is as above. The assay is classed as cell-based.
From the text: as §1, §2

Another assay concerns P. aureginosa. The description is as above. The assay is classed as cell-based.
From the text: as §1, §2

A further assay has as its system Proteus mirabilis. The description is as above. The assay is classed as cell-based.
From the text: as §1, §2

The test system of another assay is E. faecium. The description is as above. The assay is classed as cell-based.
From the text: as §1, §2

In another assay the test system is Klebsiella spp. The description is as above. The assay is classed as cell-based.
From the text: as §1, §2

The test system of a further assay is S. saprophyticus. The description is as above. The assay is classed as cell-based.
From the text: as §1, §2

The subject of the next assay is E. faecalis. Described as above. The assay is classed as cell-based.
From the text: as §1, §2

In a further assay the test system is Morganella spp. The assay is described as above. The assay is classed as cell-based.
From the text: as §1, §2

The next assay deals with Candida spp. The assay is described as above. The assay is classed as cell-based.
From the text: as §1, §2

Assay [4] relates to E. coli. In words: Growth of E. coli in antibiotic compartments of the platform (FIG. 3). The assay is classed as cell-based. Conditions: illustrated E. coli of FIG. 3. The text has this:
The photos show growth of E. coli at different quantities of bacteria/ml urine.

Like-named read-outs stand apart in the source and are kept apart here.

As to trimethoprim/sulfamethoxazole [SXT], the “Antimicrobial resistance of E. coli (resistance in percent)” value with E. coli [1] (Austria, n 126) was 9.5%; in the assay on E. coli [1] (Belgium, n 137) it was 14.6%; with E. coli [1] (Canada, n 166), 12.0%; in the assay on E. coli [1] (Denmark, n 85), 8.2%; in the assay on E. coli [1] (Finland, n 182) it was 4.9%; in the assay with E. coli [1] (France, n 199), 15.1%. For the same molecule, the “Antimicrobial resistance of E. coli (resistance in percent)” value in the assay on E. coli [1] (Germany, n 138) is 21.0%; in the assay with E. coli [1] (Greece, n 132) it was 11.4%; in the assay with E. coli [1] (Ireland, n 154) it was 20.8%; in the assay with E. coli [1] (Luxembourg, n 24) it was 16.7%; with E. coli [1] (Norway, n 168), 11.3%; in the assay with E. coli [1] (Portugal, n 86), 26.7%. Besides, the “Antimicrobial resistance of E. coli (resistance in percent)” value is reported as 25.7% in the assay with E. coli [1] (Spain, n 191); 8.3% in the assay on E. coli [1] (Sweden, n 193); 18.9% with E. coli [1] (Switzerland, n 122); 10.3% with E. coli [1] (The Netherlands, n 195); 14.1% with E. coli [1] (Total, n 2478); 12.2% in the assay with E. coli [1] (United Kingdom, n 180). Also, the “Overall resistance in E. coli” value in the assay on E. coli [2] was 21.3%.
Turning to `Cc1nnc(NS(=O)(=O)c2ccc(N)cc2)s1` [Sulfamethizole], the “Susceptibility = S or Resistance = R” value is “R” in the assay on E. coli [3]; “S” in the assay on P. vulgaris; “R” in the assay on Enterobacter spp; “S” in the assay on Citrobacter spp.; “R” with P. aureginosa; “S” in the assay with Proteus mirabilis. For the same molecule, the “Susceptibility = S or Resistance = R” value in the assay on E. faecium is recorded as “R”; in the assay with Klebsiella spp. it was “S”; with S. saprophyticus, “S”; in the assay on E. faecalis it was “R”; in the assay with Morganella spp., “S”; with Candida spp., “R”. The “resistant or susceptible (growth in antibiotic compartment)” value with E. coli [4] is reported as “resistant”.
